Legend:
Experiment in all cases: Prostanoid receptor functional activity measured by FLIPR
Type in all cases: cell-based
Conditions in all cases: n = 6 (#1), n = 3 (#2)
[1] = biological target: T1, hDP (Homo sapiens, UniProt Q13258)
T1 sequence (Q13258 1-359): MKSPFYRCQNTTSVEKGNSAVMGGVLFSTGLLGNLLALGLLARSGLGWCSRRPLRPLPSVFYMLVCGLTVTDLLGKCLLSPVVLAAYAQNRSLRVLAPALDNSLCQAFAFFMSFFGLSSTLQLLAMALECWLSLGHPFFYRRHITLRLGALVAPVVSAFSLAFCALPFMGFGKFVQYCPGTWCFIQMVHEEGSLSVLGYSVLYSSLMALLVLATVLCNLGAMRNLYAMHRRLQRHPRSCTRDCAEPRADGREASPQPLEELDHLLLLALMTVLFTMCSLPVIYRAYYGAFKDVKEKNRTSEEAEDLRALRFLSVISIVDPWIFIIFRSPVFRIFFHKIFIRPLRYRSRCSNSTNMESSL
Procedure: (§1) The above compounds are evaluated for their selectivity for various prostaglandin (PG) receptors. […] Thus, the method of the present invention may be carried out with EP3 and EP4 receptor agonists and/or prodrugs of EP3 and EP4 receptor agonists.

[2] = biological target: T2, hEP1 (Homo sapiens, UniProt P34995)
T2 sequence (P34995 1-402): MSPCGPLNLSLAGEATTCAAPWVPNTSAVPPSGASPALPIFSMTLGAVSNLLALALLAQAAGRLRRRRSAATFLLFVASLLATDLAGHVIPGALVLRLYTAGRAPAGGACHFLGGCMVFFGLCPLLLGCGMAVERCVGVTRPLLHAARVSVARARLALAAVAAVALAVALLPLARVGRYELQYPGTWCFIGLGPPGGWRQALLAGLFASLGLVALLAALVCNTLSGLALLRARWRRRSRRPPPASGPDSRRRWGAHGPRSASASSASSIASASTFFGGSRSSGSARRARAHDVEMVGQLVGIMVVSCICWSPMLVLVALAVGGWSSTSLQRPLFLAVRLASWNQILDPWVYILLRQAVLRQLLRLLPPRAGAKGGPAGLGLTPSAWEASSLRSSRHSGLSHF
Procedure: as §1

[3] = biological target: hEP2 (Homo sapiens, UniProt P43116)
hEP2, sequence (P43116 whole entry): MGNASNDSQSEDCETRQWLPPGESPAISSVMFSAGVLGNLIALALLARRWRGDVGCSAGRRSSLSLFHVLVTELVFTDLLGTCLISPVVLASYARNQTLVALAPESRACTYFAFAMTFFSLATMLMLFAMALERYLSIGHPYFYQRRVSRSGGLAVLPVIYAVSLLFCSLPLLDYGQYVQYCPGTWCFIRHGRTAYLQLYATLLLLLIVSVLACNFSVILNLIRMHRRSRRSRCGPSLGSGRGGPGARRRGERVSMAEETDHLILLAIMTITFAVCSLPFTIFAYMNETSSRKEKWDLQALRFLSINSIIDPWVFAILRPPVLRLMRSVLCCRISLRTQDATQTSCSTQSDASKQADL
Procedure: as §1

[4] = biological target: T3, hEP3 (Homo sapiens, UniProt P43115)
T3 sequence (P43115 1-390): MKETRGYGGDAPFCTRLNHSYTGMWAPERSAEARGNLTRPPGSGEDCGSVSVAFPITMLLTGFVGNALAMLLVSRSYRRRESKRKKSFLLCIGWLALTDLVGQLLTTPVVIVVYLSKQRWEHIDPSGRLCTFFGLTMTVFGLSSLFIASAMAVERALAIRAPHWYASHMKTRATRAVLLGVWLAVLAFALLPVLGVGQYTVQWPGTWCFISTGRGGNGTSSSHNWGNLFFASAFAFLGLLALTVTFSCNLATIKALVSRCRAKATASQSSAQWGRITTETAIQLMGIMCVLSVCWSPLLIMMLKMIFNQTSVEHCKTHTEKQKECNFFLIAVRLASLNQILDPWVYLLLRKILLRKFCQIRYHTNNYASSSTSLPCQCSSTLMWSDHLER
Procedure: as §1

[5] = biological target: hEP4 (Homo sapiens, UniProt P35408)
hEP4, sequence (P35408 whole entry): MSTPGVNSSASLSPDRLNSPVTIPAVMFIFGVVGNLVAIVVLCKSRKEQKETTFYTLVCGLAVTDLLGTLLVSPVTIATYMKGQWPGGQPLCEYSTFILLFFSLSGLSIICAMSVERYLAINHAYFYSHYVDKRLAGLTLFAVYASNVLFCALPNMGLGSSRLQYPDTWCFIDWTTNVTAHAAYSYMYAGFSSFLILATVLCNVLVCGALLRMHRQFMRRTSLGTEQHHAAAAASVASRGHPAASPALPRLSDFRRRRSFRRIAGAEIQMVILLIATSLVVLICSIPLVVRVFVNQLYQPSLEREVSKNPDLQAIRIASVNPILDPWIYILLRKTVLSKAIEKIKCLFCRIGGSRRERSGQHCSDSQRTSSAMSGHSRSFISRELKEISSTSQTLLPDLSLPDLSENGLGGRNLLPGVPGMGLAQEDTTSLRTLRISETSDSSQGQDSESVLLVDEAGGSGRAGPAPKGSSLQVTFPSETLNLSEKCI
Procedure: as §1

[6] = biological target: hFP (Homo sapiens, UniProt P43088)
hFP, sequence (P43088 whole entry): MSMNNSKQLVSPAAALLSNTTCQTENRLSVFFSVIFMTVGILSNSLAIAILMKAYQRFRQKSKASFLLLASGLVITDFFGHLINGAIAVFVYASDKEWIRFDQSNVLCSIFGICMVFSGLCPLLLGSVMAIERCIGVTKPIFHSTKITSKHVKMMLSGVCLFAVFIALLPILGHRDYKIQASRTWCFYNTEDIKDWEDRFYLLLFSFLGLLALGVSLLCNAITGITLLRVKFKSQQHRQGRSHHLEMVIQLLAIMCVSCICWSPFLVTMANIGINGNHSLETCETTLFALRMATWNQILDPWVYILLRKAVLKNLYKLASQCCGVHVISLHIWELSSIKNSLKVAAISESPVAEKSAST
Procedure: as §1

[7] = biological target: hIP (Homo sapiens, UniProt P43119)
hIP, sequence (P43119 whole entry): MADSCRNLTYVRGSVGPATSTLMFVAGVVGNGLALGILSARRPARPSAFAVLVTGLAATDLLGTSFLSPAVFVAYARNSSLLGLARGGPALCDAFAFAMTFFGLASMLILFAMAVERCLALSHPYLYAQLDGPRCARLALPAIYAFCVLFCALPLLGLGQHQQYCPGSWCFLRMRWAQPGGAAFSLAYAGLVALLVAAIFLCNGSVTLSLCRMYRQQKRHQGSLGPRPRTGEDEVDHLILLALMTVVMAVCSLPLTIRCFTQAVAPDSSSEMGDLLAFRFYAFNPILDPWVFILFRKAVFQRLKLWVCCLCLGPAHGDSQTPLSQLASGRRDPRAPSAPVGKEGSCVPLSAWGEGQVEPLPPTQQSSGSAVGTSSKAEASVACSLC
Procedure: as §1

[8] = biological target: T4, hTP (Homo sapiens, UniProt P21731)
T4 sequence (P21731 1-343): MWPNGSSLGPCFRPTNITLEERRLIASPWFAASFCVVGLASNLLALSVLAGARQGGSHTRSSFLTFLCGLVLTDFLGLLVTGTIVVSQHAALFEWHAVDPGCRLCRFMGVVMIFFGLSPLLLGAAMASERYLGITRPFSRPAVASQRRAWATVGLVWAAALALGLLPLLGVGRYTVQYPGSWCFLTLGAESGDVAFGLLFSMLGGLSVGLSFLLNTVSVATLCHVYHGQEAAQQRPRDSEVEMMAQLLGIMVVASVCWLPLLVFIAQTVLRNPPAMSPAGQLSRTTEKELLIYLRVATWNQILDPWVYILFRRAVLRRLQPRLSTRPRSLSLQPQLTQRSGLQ
Procedure: as §1

| EC50 [1] | EC50 [2] | EC50 [3] | EC50 [4] | EC50 [5] | EC50 [6] | EC50 [7] | EC50 [8] | SMILES |
| --- | --- | --- | --- | --- | --- | --- | --- | --- |
| > 10000 nM | 2260 nM | 1110 nM | 44 nM | 2.55 nM | > 10000 nM | > 10000 nM | 3290 nM | CCCCC[C@H](O)/C=C/[C@H]1[C@H](O)CC(=O)[C@@H]1SCCCSCC(=O)OC(C)C [#2, {3-[(1R,2S,3R)-3-Hydroxy-2-((S)-(E)-3-hydroxyoct-1-enyl)-5-oxocyclopentyl-sulfanyl]propylsulfanyl}acetic acid isopropyl ester] |
| > 10000 nM | 304 nM | 380 nM | 36 nM | 0.26 nM | > 10000 nM | > 10000 nM | 561 nM | CCCCC[C@H](O)/C=C/[C@H]1[C@H](O)CC(=O)[C@@H]1SCCCSCC(=O)O [#1, {3-[(1R,2S,3R)-3-Hydroxy-2-((S)-(E)-3-hydroxyoct-1-enyl)-5-oxocyclopentyl-sulfanyl]propylsulfanyl}acetic acid] |
